Experiments:
HflX (wild-type) = biological target: T1, HflX (wild-type) (Escherichia coli, UniProt P25519); experiment: stopped-flow light scattering of […] ribosome splitting; format: biochemical; settings: 1 uM HflX, 125 uM nucleotide, 0.15 uM 70S ribosomes, 5 mM Mg2+, 20 °C; compared with apo HflX; indirect functional read-out
T1 construct: full length, N-terminal His6-tag, pET28a

HflX ΔL372 = biological target: T2, HflX ΔL372 (Escherichia coli, UniProt P25519); experiment: [γ-32P]GTP hydrolysis, phosphate release, multiple turnover; format: biochemical; settings: ribosome-stimulated GTPase; 1 uM HflX, 125 uM GTP, 1 uM ribosomes per methods; labelled compound
T2 construct: C-terminal truncation: codon Leu372 (elsewhere printed Lys372) replaced by amber stop; N-terminal His6-tag, pET28a
T2 sequence (P25519 1-371): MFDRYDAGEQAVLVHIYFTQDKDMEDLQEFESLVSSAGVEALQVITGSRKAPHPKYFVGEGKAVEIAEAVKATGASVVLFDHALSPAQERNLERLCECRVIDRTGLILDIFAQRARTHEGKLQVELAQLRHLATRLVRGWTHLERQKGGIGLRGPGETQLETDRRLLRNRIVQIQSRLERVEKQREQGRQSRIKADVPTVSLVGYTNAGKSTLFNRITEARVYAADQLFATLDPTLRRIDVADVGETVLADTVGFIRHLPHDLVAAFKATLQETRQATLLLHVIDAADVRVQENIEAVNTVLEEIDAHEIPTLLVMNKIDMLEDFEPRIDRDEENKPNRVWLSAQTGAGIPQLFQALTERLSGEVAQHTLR

T1 sequence (P25519 whole entry): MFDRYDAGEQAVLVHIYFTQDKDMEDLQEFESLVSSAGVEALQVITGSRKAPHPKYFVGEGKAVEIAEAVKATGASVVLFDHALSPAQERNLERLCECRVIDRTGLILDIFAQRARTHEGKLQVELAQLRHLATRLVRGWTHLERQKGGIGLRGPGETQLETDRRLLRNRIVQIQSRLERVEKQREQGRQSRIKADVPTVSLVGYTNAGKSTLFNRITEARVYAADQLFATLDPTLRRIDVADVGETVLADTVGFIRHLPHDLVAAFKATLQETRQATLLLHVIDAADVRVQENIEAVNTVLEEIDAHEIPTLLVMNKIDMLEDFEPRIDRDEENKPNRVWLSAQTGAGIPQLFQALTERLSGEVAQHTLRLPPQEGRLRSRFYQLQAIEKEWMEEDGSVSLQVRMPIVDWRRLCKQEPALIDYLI

| SMILES | stopped-flow light scattering of 70S ribosome splitting (HflX (wild-type)) | [γ-32P]GTP hydrolysis, phosphate release, multiple turnover (HflX ΔL372) |
| --- | --- | --- |
| Nc1nc2c(ncn2[C@@H]2O[C@H](COP(=O)(O)OP(=O)(O)NP(=O)(O)O)[C@@H](O)[C@H]2O)c(=O)[nH]1 [GDPNP] | HflX•GDPNP dissociated ribosomes to a greater extent than HflX•GDP |  |
| Nc1nc2c(ncn2[C@@H]2O[C@H](COP(=O)(O)OP(=O)(O)OP(=O)(O)O)[C@@H](O)[C@H]2O)c(=O)[nH]1 [GTP] |  | we tested the ΔL372 truncation variant for GTP hydrolysis finding that it is still active |
